Assay results from patent US20040009973A1, “Novel potassium channels modulators” (4SC AG, priority 2002, published 2004).

These compounds were tested against T1, BK potassium channel, cloned hSlo (α-hSlo and β-bSlo) in CHO cells (Homo sapiens, UniProt Q12791) (assay: Em-Assay: membrane potential with voltage sensitive dye DiBAC(4)3, fluorescence plate reader). Conditions: compound 50 μM; NS004 25 or 50 μM; hSlo transfected CHO cells; change in DiBAC(4)3 fluorescence intensity.
T1 construct: expressed in transfected cells; host or cells: CHO cells, permanently transfected
Assay type: cell-based
Description: The large conductance, voltage-dependent and Ca^2+-activated potassium channel BK is a potassium selective ion channel and belongs to the subfamily of KCa channels. Four BK alpha-subunits form a functional channel that can be regulated by intracellular Ca^2+ concentration, membrane voltage, and other mechanisms like phosphorylation states or beta subunits. To test the biological activity of the compounds, we applied two different techniques, a fluorescence based assay using a voltage sensitive dye (Em-Assay) as well as exploiting electrophysiological methods.
CHO cells permanently transfected with cloned hSlo (α-hSlo and β-bSlo), yielding typical BK potassium currents (Zhou et al., Pflügers Arch., 436: 725-734 (1998), were used for the evaluation of compound activity. Activation or inhibition of BK channels in these cells leads to a change of the electrochemical gradient causing a hyperpolarized or depolarised membrane potential, respectively.
To determine changes in the membrane potential of the cells we used the voltage sensitive dye DiBAC(4)3 (Molecular Probes) in a kinetic assay system using a fluorescent plate reader (Manning and Sontheimer, J. Neurosci, Meth., 91: 73-81 (1999). The anionic bis-oxonol DiBAC(4)3 is a voltage sensitive dye which partitions from the extracellular environment into the cell where it reversibly binds to intracellular proteins, a kinetic process depending on the membrane potential of the cell. At depolarised potentials (i.e. at a reduced K^+ efflux due to blocked K^+ channels) the dye accumulates in the cell leading to an increased fluorescence intensity, due to its increased fluorescence if bound to cellular proteins. At hyperpolarized potentials (i.e. at an increased K^+ efflux due to the opening of K^+ channels), the dye partitions out of the cell causing a decreased fluorescence intensity.
hSlo transfected CHO cells where maintained in DMEM supplemented with 10% FCS, 250 μg/ml Geneticin, 100 μg/ml Hygromycin, 1×HT-Supplement, and 1×Non-essential Amino Acids and cultured in a humidified CO2 incubator. After trypsination, cells where plated with a density of 5×10^4 cells per well on a clear 96-well plate and incubated for 24 h. Cells where washed once with PBS, once with PBS containing 20 mM HEPES (adjusted to pH 7.4 with NaOH) and 2 μM DIBAC(4)3 (DPBS-DiBAC solution). 180 μl of the dPBS-DiBAC solution was then added to the cells and the plate incubated for 30-60 min at 37° C. During this time the dye could partition into the cells and reach a certain steady-state distribution, depending on the resting membrane potential. Test and reference compounds were stored as DMSO stock solutions and diluted in dPBS-DiBAC solution to the desired concentration.
Fluorescence intensity (Ex.: 485 nm/Em.: 520 nm) of each well was detected in the plate reader (Fluostar, BMG) every 60 seconds. After recording the baseline fluorescence for 7 minutes, 20 μl test—and reference compounds were added and the fluorescence intensity was detected for additional 15 minutes. Background was subtracted, data values were normalized and expressed as a change in fluorescence intensity against time. The change in fluorescence intensity caused by the test compounds was evaluated, compared to the effect of the reference compound NS004, and the ratio was determined (see Table I).

T1 sequence (Q12791 1-1178 isoform Q12791-5): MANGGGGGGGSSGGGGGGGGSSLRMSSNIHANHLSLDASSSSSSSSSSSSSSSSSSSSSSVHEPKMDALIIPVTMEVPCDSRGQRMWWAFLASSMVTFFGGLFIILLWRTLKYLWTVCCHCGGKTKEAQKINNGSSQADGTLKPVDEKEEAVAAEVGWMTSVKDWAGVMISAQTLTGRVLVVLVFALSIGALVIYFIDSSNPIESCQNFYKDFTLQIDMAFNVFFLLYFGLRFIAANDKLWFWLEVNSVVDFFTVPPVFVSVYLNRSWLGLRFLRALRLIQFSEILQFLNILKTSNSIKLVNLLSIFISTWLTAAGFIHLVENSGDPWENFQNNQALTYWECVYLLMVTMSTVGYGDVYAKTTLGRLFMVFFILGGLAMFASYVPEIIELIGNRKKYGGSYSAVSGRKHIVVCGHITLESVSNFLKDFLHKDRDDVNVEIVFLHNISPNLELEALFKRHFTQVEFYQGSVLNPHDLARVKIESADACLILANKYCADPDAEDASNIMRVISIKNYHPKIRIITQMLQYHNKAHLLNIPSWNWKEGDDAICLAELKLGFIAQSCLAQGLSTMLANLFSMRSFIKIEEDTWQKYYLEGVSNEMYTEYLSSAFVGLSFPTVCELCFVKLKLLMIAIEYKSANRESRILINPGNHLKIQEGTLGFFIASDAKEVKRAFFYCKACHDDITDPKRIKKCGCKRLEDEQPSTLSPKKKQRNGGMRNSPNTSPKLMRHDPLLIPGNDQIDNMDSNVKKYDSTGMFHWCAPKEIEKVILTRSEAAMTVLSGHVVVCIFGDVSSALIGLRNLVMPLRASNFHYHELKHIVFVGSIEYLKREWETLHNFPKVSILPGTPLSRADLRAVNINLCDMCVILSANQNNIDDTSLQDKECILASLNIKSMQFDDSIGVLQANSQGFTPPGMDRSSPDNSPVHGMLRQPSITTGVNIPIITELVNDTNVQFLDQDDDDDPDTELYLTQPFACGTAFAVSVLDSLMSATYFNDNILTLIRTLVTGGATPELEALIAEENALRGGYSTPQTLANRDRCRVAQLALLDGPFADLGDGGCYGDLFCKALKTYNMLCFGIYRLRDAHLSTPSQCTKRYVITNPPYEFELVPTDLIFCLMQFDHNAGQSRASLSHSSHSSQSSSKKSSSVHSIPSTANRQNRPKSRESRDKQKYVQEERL
T1 sequence (Q28067 2-191 partner limits assumed): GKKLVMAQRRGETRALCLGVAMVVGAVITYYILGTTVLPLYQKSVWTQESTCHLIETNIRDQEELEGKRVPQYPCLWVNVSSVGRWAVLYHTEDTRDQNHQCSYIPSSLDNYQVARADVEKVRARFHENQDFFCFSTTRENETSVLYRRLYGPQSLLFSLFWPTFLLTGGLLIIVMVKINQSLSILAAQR

Row | Em effect: ratio of the compound effect compared to the maximal effect of NS004 | SMILES
1 | + (0-1 = +) | FC(F)(F)c1cc(NCc2ccc(Br)cc2)cc(NCc2ccc(Br)cc2)c1 [Compound 2]
2 | + (0-1 = +) | FC(F)(F)c1cc(NCc2cccc(Cl)c2)cc(NCc2cccc(Cl)c2)c1 [Compound 3]
3 | + (0-1 = +) | FC(F)(F)c1cc(NCc2ccc3ccccc3c2)cc(NCc2ccc3ccccc3c2)c1 [Compound 4]
4 | ++ (>1-1.5 = ++) | FC(F)(F)c1cc(NCc2ccc(Br)cc2)cc(NCc2cccc(Cl)c2)c1 [Compound 5]
5 | + (0-1 = +) | O=[N+]([O-])c1ccc(CNc2cc(NCc3ccc4ccccc4c3)cc(C(F)(F)F)c2)cc1 [Compound 8]
6 | + (0-1 = +) | c1ccc(CNc2cccc(NCc3ccccc3)c2)cc1 [Compound 9, N,N′-Dibenzylbenzene-1,3-diamine]
7 | + (0-1 = +) | Cc1cc(NCc2ccc3ccccc3c2)ccc1NCc1ccc2ccccc2c1 [Compound 16]
8 | + (0-1 = +) | Cc1cc(NCc2cccc(Cl)c2)ccc1NCc1cccc(Cl)c1 [Compound 17]
9 | + (0-1 = +) | Cc1cc(NCc2ccc(Br)cc2)ccc1NCc1ccc(Br)cc1 [Compound 18]
10 | + (0-1 = +) | Clc1cc(NCc2ccc(Br)cc2)ccc1NCc1ccccc1 [Compound 19]
11 | + (0-1 = +) | Clc1cccc(CNc2ccc(NCc3ccccc3)c(Cl)c2)c1 [Compound 20, N′-Benzyl-2-chloro-N^4-(3-chlorobenzyl)-benzene-1,4-diamine]
12 | + (0-1 = +) | Clc1cccc(CNc2ccc(NCc3ccc(Br)cc3)c(Cl)c2)c1 [Compound 21, N^1-(4-Bromobenzyl)-2-chloro-N^4-(3-chlorobenzyl)-benzene-1,4-diamine]
13 | + (0-1 = +) | Clc1cccc(CNc2ccc(NCc3ccc4ccccc4c3)c(Cl)c2)c1 [Compound 22]
14 | + (0-1 = +) | O=[N+]([O-])c1ccc(CNc2ccc(NCc3ccc(Br)cc3)cc2Cl)cc1 [Compound 23]
15 | + (0-1 = +) | O=[N+]([O-])c1ccc(CNc2ccc(NCc3cccc(Cl)c3)cc2Cl)cc1 [Compound 24]
16 | + (0-1 = +) | O=[N+]([O-])c1ccc(CNc2ccc(NCc3ccc4ccccc4c3)cc2Cl)cc1 [Compound 25]
17 | + (0-1 = +) | Fc1ccc(CNc2cccc(NCc3ccc(F)cc3)c2)cc1 [Compound 26, N,N′-bis-(4-fluorobenzyl)-benzene-1,3-diamine]
18 | ++ (>1-1.5 = ++) | Fc1cc(F)cc(CNc2cccc(NCc3cc(F)cc(F)c3)c2)c1 [Compound 27, N,N′-bis-(3,5-difluorobenzyl)-benzene-1,3-diamine]
19 | ++ (>1-1.5 = ++) | Fc1ccc(CNc2cccc(NCc3ccc(F)cc3F)c2)c(F)c1 [Compound 28, N,N′-bis-(2,4-difluorobenzyl)-benzene-1,3-diamine]
20 | + (0-1 = +) | Fc1cccc(Cl)c1CNc1cccc(NCc2c(F)cccc2Cl)c1 [Compound 29]

Row | Em effect: ratio of the compound effect compared to the maximal effect of NS004 | SMILES
21 | + (0-1 = +) | N#Cc1ccccc1-c1ccc(CNc2cccc(NCc3ccc(-c4ccccc4C#N)cc3)c2)cc1 [Compound 30]
22 | + (0-1 = +) | Clc1ccccc1CNc1cccc(NCc2ccccc2Cl)c1 [Compound 32]
23 | + (0-1 = +) | COc1cccc(CNc2cccc(NCc3cccc(OC)c3)c2)c1 [Compound 33]
24 | + (0-1 = +) | Fc1cccc(F)c1CNc1cccc(NCc2c(F)cccc2F)c1 [Compound 34, N,N′-bis-(2,6-difluorobenzyl)-benzene-1,3-diamine]
25 | ++ (>1-1.5 = ++) | CC(C)(C)c1ccc(CNc2cccc(NCc3ccc(C(C)(C)C)cc3)c2)cc1 [Compound 36, N,N′-bis-(4-tert-butylbenzyl)-benzene-1,3-diamine]
26 | ++ (>1-1.5 = ++) | Fc1ccc(CNc2cccc(NCc3ccc(F)cc3Cl)c2)c(Cl)c1 [Compound 37, N,N′-bis-(2-chloro-4-fluorobenzyl)-benzene-1,3-diamine]
27 | ++ (>1-1.5 = ++) | FC(F)(F)c1ccccc1CNc1cccc(NCc2ccccc2C(F)(F)F)c1 [Compound 39]
28 | + (0-1 = +) | CC(C)(C)c1ccc(CNc2cccc(NCc3csc4ccc(Cl)cc34)c2)cc1 [Compound 40]
29 | + (0-1 = +) | CC(C)(C)c1ccc(CNc2cccc(NCc3ccc(-c4csnn4)cc3)c2)cc1 [Compound 41]
30 | + (0-1 = +) | CC(C)(C)c1ccc(CNc2cccc(NCc3cccc(Cl)c3)c2)cc1 [Compound 42, N-(4tert-butylbenzyl)-N′-(3-chloro-benzyl)-benzene-1,3-diamine]
31 | + (0-1 = +) | CC(C)(C)c1ccc(CNc2cccc(NCc3ccc(S(C)(=O)=O)cc3)c2)cc1 [Compound 43, N-(4-tert-butylbenzyl)-N′-(4-methanesulfonylbenzyl)-benzene-1,3-diamine]
32 | + (0-1 = +) | Fc1cccc(CNc2cccc(NCc3ccc(-c4csnn4)cc3)c2)c1 [Compound 44, N-(3-fluoro-benzyl)-N′-(4-[1,2,3]thiadiazol-4-yl-benzyl)-benzene-1,3-diamine]
33 | + (0-1 = +) | CS(=O)(=O)c1ccc(CNc2cccc(NCc3cccc(F)c3)c2)cc1 [Compound 45]
34 | ++ (>1-1.5 = ++) | O=[N+]([O-])c1ccc(CNc2cccc(NCc3ccc(F)cc3)c2)o1 [Compound 46]
35 | ++ (>1-1.5 = ++) | Clc1cccc(CNc2cccc(NCc3ccccc3Cl)c2)c1 [Compound 47]
36 | + (0-1 = +) | Fc1cccc(CNc2cccc(NCc3ccccc3Cl)c2)c1 [Compound 48]
37 | + (0-1 = +) | Fc1cccc(F)c1CNc1cccc(NCc2csc3ccc(Cl)cc23)c1 [Compound 49, N-(5-chlorobenzo[b]thiophen-3-ylmetbyl)-N′-(2,6-difluorobenzyl)-benzene-1,3-diamine]
38 | + (0-1 = +) | CS(=O)(=O)c1ccc(CNc2cccc(NCc3c(F)cccc3F)c2)cc1 [Compound 50, N-(2,6-difluorobenzyl)-N′-(4-methanesulfonylbenzyl)-benzene-1,3-diamine]
39 | + (0-1 = +) | CS(=O)(=O)c1ccc(CNc2cccc(NCc3cc(F)cc(F)c3)c2)cc1 [Compound 51, N-(3,5-difluorobenzyl)-N′-(4-methanlesulfonylbenzyl)-benzene-1,3-diamine]
40 | + (0-1 = +) | Fc1ccc(CNc2cccc(NCc3ccc(-c4csnn4)cc3)c2)c(F)c1 [Compound 52, N-(2,4-difluorobenzyl)-N′-(4-[1,2,3]thiadiazol-4-yl-benzyl)-benzene-1,3-diamine]

Row | SMILES | Em effect: ratio of the compound effect compared to the maximal effect of NS004
41 | O=[N+]([O-])c1ccc(CNc2cc(NCc3ccc([N+](=O)[O-])cc3)cc(C(F)(F)F)c2)cc1 [Compound 1] | + (0-1 = +)
42 | O=[N+]([O-])c1ccc(CNc2cccc(NCc3ccc([N+](=O)[O-])cc3)c2)cc1 [Compound 10] | + (0-1 = +)
